According to patent publication US20230103631A1, “PEPTIDES AS SELECTIVE GIP RECEPTOR AGONISTS” (Sanofi, priority 2020, published 2023):
*1 amine or outer side, *2 acyl side, *3 side chain or, on linkers, in order; H or OH if unused. Where a SMILES comes first, the peptide text is derived from it. Side-chain parts run from the residue outwards. [ ]: non-standard residue; d: D form. The star is where a group is joined. C18 diacid = O=C(O)CCCCCCCCCCCCCCCCC(=O)*; γGlu = O=C(O)[C@H](CCC(=O)[*:2])N[*:1]; AEEA = NCCOCCOCC(=O)O; Aib = CC(C)(N)C(=O)O

Experiments:
[1] = Pharmacokinetic evaluation in minipigs; format: in vivo; conditions: female, Gottingen, minipig, plasma
[2] = test system: C57Bl/6 mice; assay: Intraperitoneal glucose tolerance test (ipGTT) after s.c. treatment; format: in vivo; conditions: for Incremental blood glucose concentration AUCi / Blood glucose concentration AUC: mean ± SEM; for Incremental blood glucose concentration AUCi: vehicle +4.93 ± 0.324; for Blood glucose concentration AUC: vehicle +22.15 ± 0.662
Method: Healthy, normoglycemic male C57Bl/6NCrl mice were ordered in an age of 9-10 weeks with an approximate body weight (BW) of 24-26 g at Charles River Laboratories Deutschland GmbH, 97633 Sulzfeld, Germany. Mice were shipped grouped housed (N=4 per cage), acclimatized for one week and remained grouped housed throughout the entire study. Mice were housed under vivarium conditions that included a 12 h light/dark cycle (light phase 06:00 AM-06:00 PM), mean room temperature of 22±2° C. and a relative mean humidity of 55±10%. All animals had free access to food (Ssniff R/M-H diet) and water prior to study start.
The primary objective of the study was to investigate the compound-induced lowering of the blood glucose excursion and improvement of glucose tolerance in a mouse ipGTT setting and therefore the primary parameters included blood glucose, delta blood glucose (normalized to the time point just prior to the i.p. glucose challenge, t=0 h) and their respective calculated area under curve (AUC) values. The study was performed as an acute, single dosing study with 6 groups and the male animals were randomly divided to groups of 7-8 mice per group. Dose-dependent pharmacodynamic blood glucose lowering efficacy of the GIPR agonist was analyzed with s.c. injections 6 h before the i.p. glucose load in the dose range from 3 up to 100 nmol/kg and compared to the vehicle group as well as the semaglutide positive control at a dose of 10 nmol/kg.
In more detail, mice were fed overnight and on the following morning brought to the lab with food removed but ad libitum access to water. Blood samplings (5 μl) were performed at: −6.5, −0.5, 0, 0.17, 0.5, 1, 1.5, 2 and 3 h before and after the glucose bolus of 1 g glucose per kg BW i.p. given at time point t=0 h. On time point t=0.17 h an additional K-EDTA plasma sample from 60-80 μl blood was taken for plasma insulin analysis. Blood was withdrawn from the tip of the tail. The GIPR agonist and semaglutide were dissolved in 10 mM phosphate buffer pH 7.4 with 2.3% glycerol and 0.01% polysorbat 20 (vehicle) and s.c. treatment was performed −6 h before the glucose load (t=0 h) using an injection volume of 5 ml/kg. The injection solutions were freshly prepared prior to the experiment using sterile filtered vehicle solution.
Blood glucose was determined enzymatically (Gluco-quant® Glucose/HK kit on Roche/Hitachi 912). Plasma insulin was determined using a mouse/rat insulin sandwich immunoassay kit from Meso Scale Discovery.
All data were collected using Microsoft Excel. None of the data were collected online. The results are expressed as means±standard error of the mean (SEM). As primary study parameters, blood glucose, baseline (time point t=0 h) subtracted delta blood glucose and their respective calculated area under curve (AUC) values were determined. The respective AUC data were calculated using the trapezoid rule for the time period t=0 h until t=2 h.
The statistical analysis of the ipGTT blood glucose excursion data response following subcutaneous compound or vehicle treatment was performed on the calculated AUC values of blood glucose raw data as well as the calculated AUC values for baseline subtracted delta blood glucose data. In a first step the Levene's test was used to test for equality of variances between groups. Where Levene's test was significant (p s 0.05), a rank transformation of the calculated AUC data was applied to stabilize the variances before ANOVA analysis was conducted. Where Levene's test was not significant (p>0.05) ANOVA was conducted without prior rank transformation. In a second step a One-way ANOVA analysis for factor treatment followed by Dunnett's multiple comparisons test vs. vehicle group was used to test for statistical differences. Different levels of significance were defined as *=p<0.05, **=p<0.001, ***=p<0.0001. All analyses were performed using SAS (version 9.4) under Linux via the interface software EverSt@t V6.1. […]

[3] = 3 nmol/kg s.c. 6 h before i.p. glucose load
[4] = 10 nmol/kg s.c. 6 h before i.p. glucose load
[5] = 30 nmol/kg s.c. 6 h before i.p. glucose load
[6] = 100 nmol/kg s.c. 6 h before i.p. glucose load

CC[C@H](C)[C@H](NC(=O)[C@H](Cc1ccccc1)NC(=O)[C@H](CCC(=O)O)NC(=O)[C@H](CCC(=O)O)NC(=O)[C@H](CCC(N)=O)NC(=O)[C@H](Cc1c[nH]cn1)NC(=O)[C@@H](NC(=O)[C@H](CCCNC(=N)N)NC(=O)[C@H](CC(=O)O)NC(=O)[C@H](CCCCNC(=O)COCCOCCNC(=O)COCCOCCNC(=O)CC[C@H](NC(=O)CCCCCCCCCCCCCCCCC(=O)O)C(=O)O)NC(=O)C(C)(C)NC(=O)[C@@H](NC(=O)[C@H](CO)NC(=O)[C@H](CC(C)C)NC(=O)[C@H](CC(=O)O)NC(=O)[C@H](CO)NC(=O)[C@@H](NC(=O)[C@H](Cc1ccccc1)NC(=O)[C@@H](NC(=O)CNC(=O)[C@H](CCC(=O)O)NC(=O)C(C)(C)NC(=O)[C@@H](N)Cc1ccc(O)cc1)[C@@H](C)O)[C@@H](C)CC)[C@@H](C)CC)[C@@H](C)CC)C(=O)N[C@@H](CCC(=O)O)C(=O)N[C@@H](Cc1c[nH]c2ccccc12)C(=O)N[C@@H](CC(C)C)C(=O)N[C@@H](CC(C)C)C(=O)N[C@@H](C)C(=O)N[C@@H](CCC(N)=O)C(=O)NCC(=O)N1CCC[C@H]1C(=O)N[C@@H](CO)C(=O)N[C@@H](CO)C(=O)NCC(=O)N[C@@H](C)C(=O)N1CCC[C@H]1C(=O)N1CCC[C@H]1C(=O)N1CCC[C@H]1C(=O)N[C@@H](CO)C(N)=O [SEQ ID NO: 9, H2N-Y-Aib-E-G-T-F-I-S-D-I-S-I-Aib-K[{AEEA}2-gGlu-C18OH]-DRIHQEEFIEWILAQGPSSGAPPPS-NH2] (H-Y[Aib]EGTFISDLSI[Aib]K([AEEA-AEEA-γGlu-C18 diacid])DRIHQEEFIEWLLAQGPSSGAPPPS-NH2)
AUC(0-t) ([1]; iv, 0.05 mg/kg i.v.): 177 µg·h/mL | Cmax ([1]; iv, 0.05 mg/kg i.v.): 5530 ng/mL | half-life ([1]; iv, 0.05 mg/kg i.v.): 75.8 h | clearance ([1]; iv, 0.05 mg/kg i.v., read-out: CI (converted)): 3.84 mL/day/kg | AUC(0-t) ([1]; sc, 0.1 mg/kg s.c.): 228 µg·h/mL | Cmax ([1]; sc, 0.1 mg/kg s.c.): 3080 ng/mL | bioavailability ([1]; sc, 0.1 mg/kg s.c.): 64% | Incremental blood glucose concentration AUCi [2, 3]: +3.41 ± 0.520 mmol/L* 0-2 h | Blood glucose concentration AUC [2, 3]: +21.07 ± 0.544 mmol/L* 0-2 h | Incremental blood glucose concentration AUCi [2, 4]: +3.33 ± 0.210 mmol/L* 0-2 h | Blood glucose concentration AUC [2, 4]: +19.28 ± 0.518 mmol/L* 0-2 h | Incremental blood glucose concentration AUCi [2, 5]: +2.76 ± 0.268 mmol/L* 0-2 h | Blood glucose concentration AUC [2, 5]: +18.20 ± 0.662 mmol/L* 0-2 h | Incremental blood glucose concentration AUCi [2, 6]: +1.90 ± 0.158 mmol/L* 0-2 h | Blood glucose concentration AUC [2, 6]: +14.81 ± 0.533 mmol/L* 0-2 h | i.p. glucose tolerance compared to the vehicle group ([2]; single s.c. dose 3-100 nmol/kg, ipGTT in C57Bl/6 mice): significant and dose-dependent improvement | minimal effective dose (improvement of i.p. glucose tolerance) ([2]; single s.c. dose, ipGTT in C57Bl/6 mice): 3 to 10 nmol/kg
